Experiments:
barnyardgrass [1] = experiment: Test A preemergence; type: in vivo, Echinochloa crus-galli; settings: preemergence
Summary of the method: (§1)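 Visual injury ratings, 0 = no effect to 100 = complete control, taken about 10 days after treatment against untreated controls. Test chemicals, in a non-phytotoxic surfactant-containing solvent, were sprayed onto soil preemergence or onto one- to two-leaf plants (2–10 cm) postemergence, in loam–sand soil under greenhouse conditions.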

crabgrass, large = experiment: Test A postemergence; type: in vivo, Digitaria sanguinalis
Summary of the method: as §1

velvetleaf [2] = experiment: Test A postemergence; type: in vivo, Abutilon theophrasti; settings: Postemergence
Summary of the method: as §1

corn [3] = experiment: Test A postemergence; type: in vivo, Zea mays
Summary of the method: as §1

blackgrass = experiment: Test C preemergence; type: in vivo, Alopecurus myosuroides; settings: preemergence
Summary of the method: (§2)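 Visual control ratings on a 0–100 scale (100 = complete control) made against untreated controls after 13 to 15 days in greenhouse. Compounds applied in surfactant-containing solvent mixture, either preemergence to loam/sand-sown seeds or postemergence to 1- to 4-leaf plants (2–18 cm) in peat medium.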

ryegrass, Italian = experiment: Test C preemergence; type: in vivo, Lolium multiflorum; settings: preemergence
Summary of the method: as §2

wheat = experiment: Test C preemergence; type: in vivo, Triticum aestivum; settings: preemergence
Summary of the method: as §2

galium = experiment: Test C preemergence; type: in vivo, Galium aparine; settings: preemergence
Summary of the method: as §2

corn [4] = experiment: Test C preemergence; type: in vivo, Zea mays; settings: preemergence
Summary of the method: as §2

johnsongrass = experiment: Test C preemergence; type: in vivo, Sorghum halepense; settings: preemergence
Summary of the method: as §2

pigweed = experiment: Test C preemergence; type: in vivo, Amaranthus retroflexus; settings: preemergence
Summary of the method: as §2

soybean = experiment: Test C preemergence; type: in vivo, Glycine max; settings: preemergence
Summary of the method: as §2

barnyardgrass [5] = experiment: Test C preemergence; type: in vivo, Echinochloa crus-galli; settings: preemergence
Summary of the method: as §2

oilseed rape = experiment: Test C preemergence; type: in vivo, Brassica napus; settings: preemergence
Summary of the method: as §2

velvetleaf [6] = experiment: Test C preemergence; type: in vivo, Abutilon theophrasti; settings: preemergence
Summary of the method: as §2

[7] = Postemergence, 500 g ai/ha, 0 to 100 scale (0 no effect, 100 complete control)
[8] = postemergence, 125 g ai/ha, about 10 days, visual rating on 0 to 100 scale (0 no effect, 100 complete control)
[9] = 31 g ai/ha, visual rating, scale 0 to 100 (0 no effect, 100 complete control), 13 to 15 days
[10] = 62 g ai/ha, scale 0 to 100 (0 no effect, 100 complete control), 13 to 15 days
[11] = 125 g ai/ha, 13 to 15 days, scale 0 to 100, 0 = no effect, 100 = complete control
[12] = 250 g ai/ha, scale 0 to 100, 0 is no effect, 100 is complete control

**Q.** CCOc1cc(C(=O)NC2CC2)nn1Cc1ccnc(C(F)(F)F)c1 [Compound 189] was tested. Which “Barnyardgrass plant response rating (0 to 100 scale, 0 is no effect, 100 is complete control)” value (barnyardgrass [1]; 125 g ai/ha, visual injury approx. 10 days after treatment) did it give?
**A.** 90

**Q.** And the “Barnyardgrass plant response rating” value (barnyardgrass [1]; 500 g ai/ha, visual injury after approx. 10 days, 0 to 100 scale (0 no effect, 100 complete control))?
**A.** 100

**Q.** And the “Crabgrass, Large plant response rating” value (crabgrass, large; [7])?
**A.** 90

**Q.** What about the “Crabgrass, Large plant response rating” value (crabgrass, large; [8]) of the same molecule?
**A.** 90

**Q.** What about the “Velvetleaf plant response rating” value (velvetleaf [2]; 125 g ai/ha, 0 to 100 scale, 0 no effect, 100 complete control) of the same molecule?
**A.** 100

**Q.** And the “Velvetleaf plant response rating” value (velvetleaf [2]; 500 g ai/ha, 0 to 100 scale (0 no effect, 100 complete control))?
**A.** 100

**Q.** And the “Corn plant response rating” value (corn [3]; [7])?
**A.** 100

**Q.** And the “Corn plant response rating” value (corn [3]; [8])?
**A.** 80

**Q.** What about the “Blackgrass plant response rating” value (blackgrass; [9]) of the same molecule?
**A.** 90

**Q.** And the “Blackgrass plant response rating” value (blackgrass; [10])?
**A.** 90

**Q.** And the “Plant response rating, Blackgrass” value (blackgrass; [11])?
**A.** 90

**Q.** And the “Blackgrass plant response rating” value (blackgrass; [12])?
**A.** 90

**Q.** And the “Ryegrass, Italian plant response rating” value (ryegrass, Italian; [9])?
**A.** 40

**Q.** What about the “Ryegrass, Italian plant response rating” value (ryegrass, Italian; [10]) of the same molecule?
**A.** 90

**Q.** What about the “Plant response rating, Ryegrass, Italian” value (ryegrass, Italian; [11]) of the same molecule?
**A.** 90

**Q.** What about the “Ryegrass, Italian plant response rating” value (ryegrass, Italian; [12]) of the same molecule?
**A.** 90

**Q.** And the “Wheat plant response rating” value (wheat; [9])?
**A.** 40

**Q.** What about the “Wheat plant response rating” value (wheat; [10]) of the same molecule?
**A.** 80

**Q.** What about the “Plant response rating, Wheat” value (wheat; [11]) of the same molecule?
**A.** 90

**Q.** And the “Wheat plant response rating” value (wheat; [12])?
**A.** 90

**Q.** And the “Galium plant response rating” value (galium; [9])?
**A.** 90

**Q.** And the “Galium plant response rating” value (galium; [10])?
**A.** 95

**Q.** And the “Plant response rating, Galium” value (galium; [11])?
**A.** 100

**Q.** And the “Galium plant response rating” value (galium; [12])?
**A.** 100

**Q.** And the “Corn plant response rating” value (corn [4]; [9])?
**A.** 5

**Q.** And the “Corn plant response rating” value (corn [4]; [10])?
**A.** 40

**Q.** And the “Plant response rating, Corn” value (corn [4]; [11])?
**A.** 85

**Q.** And the “Corn plant response rating” value (corn [4]; [12])?
**A.** 98

**Q.** What about the “Johnsongrass plant response rating” value (johnsongrass; [9]) of the same molecule?
**A.** 65

**Q.** What about the “Johnsongrass plant response rating” value (johnsongrass; [10]) of the same molecule?
**A.** 98

**Q.** What about the “Plant response rating, Johnsongrass” value (johnsongrass; [11]) of the same molecule?
**A.** 100

**Q.** What about the “Johnsongrass plant response rating” value (johnsongrass; [12]) of the same molecule?
**A.** 100

**Q.** What about the “Pigweed plant response rating” value (pigweed; [9]) of the same molecule?
**A.** 100

**Q.** What about the “Pigweed plant response rating” value (pigweed; [10]) of the same molecule?
**A.** 100

**Q.** And the “Plant response rating, Pigweed” value (pigweed; [11])?
**A.** 100

**Q.** And the “Pigweed plant response rating” value (pigweed; [12])?
**A.** 100

**Q.** What about the “Soybean plant response rating” value (soybean; [9]) of the same molecule?
**A.** 20

**Q.** And the “Soybean plant response rating” value (soybean; [10])?
**A.** 95

**Q.** And the “Plant response rating, Soybean” value (soybean; [11])?
**A.** 98

**Q.** And the “Soybean plant response rating” value (soybean; [12])?
**A.** 98

**Q.** What about the “Barnyardgrass plant response rating” value (barnyardgrass [5]; [9]) of the same molecule?
**A.** 95

**Q.** And the “Barnyardgrass plant response rating” value (barnyardgrass [5]; [10])?
**A.** 100

**Q.** What about the “Plant response rating, Barnyardgrass” value (barnyardgrass [5]; [11]) of the same molecule?
**A.** 100

**Q.** What about the “Barnyardgrass plant response rating” value (barnyardgrass [5]; [12]) of the same molecule?
**A.** 100

**Q.** And the “Oilseed Rape plant response rating” value (oilseed rape; [9])?
**A.** 98

**Q.** What about the “Oilseed Rape plant response rating” value (oilseed rape; [10]) of the same molecule?
**A.** 95

**Q.** What about the “Plant response rating, Oilseed Rape” value (oilseed rape; [11]) of the same molecule?
**A.** 95

**Q.** What about the “Oilseed Rape plant response rating” value (oilseed rape; [12]) of the same molecule?
**A.** 95

**Q.** And the “Velvetleaf plant response rating” value (velvetleaf [6]; [9])?
**A.** 98

**Q.** And the “Velvetleaf plant response rating” value (velvetleaf [6]; [10])?
**A.** 100

**Q.** What about the “Plant response rating, Velvetleaf” value (velvetleaf [6]; [11]) of the same molecule?
**A.** 100

**Q.** What about the “Velvetleaf plant response rating” value (velvetleaf [6]; [12]) of the same molecule?
**A.** 100

From patent publication US20150105252A1, “SUBSTITUTED PYRAZOLES AS HERBICIDES” (E I DU PONT DE NEMOURS AND COMPANY, priority 2013, published 2015)
